Test results reported in the kinase profiling compilation of Christmann-Franck et al. (2016).
One block for each molecule: values may come before it.

Assays:
ULK2 (human) = ULK2 (human) (UniProt Q8IYT8); assay: KINOMEscan competition binding; conditions: compound 10.0 µM
PTK2B (human) = PTK2B (human) (UniProt Q14289); assay: KINOMEscan competition binding; conditions: compound 10.0 µM
INSR (human) = INSR (human) (UniProt P06213); assay: KINOMEscan competition binding; conditions: compound 10.0 µM
[1] = system: EGFR (human), P00533 [752-759 del]; assay: KINOMEscan competition binding; conditions: compound 10.0 µM
INSRR (human) = INSRR (human) (UniProt P14616); assay: KINOMEscan competition binding; conditions: compound 10.0 µM
AKT3 (human) = AKT3 (human) (UniProt Q9Y243); assay: KINOMEscan competition binding; conditions: compound 10.0 µM
PLK3 (human) = PLK3 (human) (UniProt Q9H4B4); assay: KINOMEscan competition binding; conditions: compound 10.0 µM
[2] = system: EGFR (human), P00533 [G719C; 746-750 del]; assay: KINOMEscan competition binding; conditions: compound 10.0 µM
CSNK1E (human) = CSNK1E (human) (UniProt P49674); assay: KINOMEscan competition binding; conditions: compound 10.0 µM
PTK2 (human) = PTK2 (human) (UniProt Q05397); assay: KINOMEscan competition binding; conditions: compound 10.0 µM
PLK4 (human) = PLK4 (human) (UniProt O00444); assay: KINOMEscan competition binding; conditions: compound 10.0 µM
STK33 (human) = STK33 (human) (UniProt Q9BYT3); assay: KINOMEscan competition binding; conditions: compound 10.0 µM
DMPK (human) = DMPK (human) (UniProt Q09013); assay: KINOMEscan competition binding; conditions: compound 10.0 µM
DMPK (human), sequence (Q09013 whole entry, looked up): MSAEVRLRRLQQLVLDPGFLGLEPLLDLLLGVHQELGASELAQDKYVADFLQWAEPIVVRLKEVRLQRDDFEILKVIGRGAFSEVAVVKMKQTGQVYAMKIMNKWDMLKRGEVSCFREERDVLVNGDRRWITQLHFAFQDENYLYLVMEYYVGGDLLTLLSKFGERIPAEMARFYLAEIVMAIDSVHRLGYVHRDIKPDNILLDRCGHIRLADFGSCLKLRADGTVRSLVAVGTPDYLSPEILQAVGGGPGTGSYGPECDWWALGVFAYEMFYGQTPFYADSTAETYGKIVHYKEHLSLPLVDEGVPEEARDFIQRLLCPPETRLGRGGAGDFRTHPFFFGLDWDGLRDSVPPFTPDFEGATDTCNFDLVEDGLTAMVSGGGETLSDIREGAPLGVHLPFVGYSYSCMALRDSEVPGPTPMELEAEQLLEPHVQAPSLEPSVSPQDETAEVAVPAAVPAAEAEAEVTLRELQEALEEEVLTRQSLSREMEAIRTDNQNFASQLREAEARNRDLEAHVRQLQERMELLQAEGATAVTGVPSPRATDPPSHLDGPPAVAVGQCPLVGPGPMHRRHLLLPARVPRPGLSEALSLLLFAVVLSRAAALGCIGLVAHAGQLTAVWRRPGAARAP

[3] = system: EGFR (human), P00533 [747-751 del / S ins]; assay: KINOMEscan competition binding; conditions: compound 10.0 µM
RPS6KA6 KD2 (human) = RPS6KA6 KD2 (human) (UniProt Q9UK32); assay: KINOMEscan competition binding; conditions: compound 10.0 µM
RPS6KA6 KD2 (human), sequence (Q9UK32 whole entry, looked up): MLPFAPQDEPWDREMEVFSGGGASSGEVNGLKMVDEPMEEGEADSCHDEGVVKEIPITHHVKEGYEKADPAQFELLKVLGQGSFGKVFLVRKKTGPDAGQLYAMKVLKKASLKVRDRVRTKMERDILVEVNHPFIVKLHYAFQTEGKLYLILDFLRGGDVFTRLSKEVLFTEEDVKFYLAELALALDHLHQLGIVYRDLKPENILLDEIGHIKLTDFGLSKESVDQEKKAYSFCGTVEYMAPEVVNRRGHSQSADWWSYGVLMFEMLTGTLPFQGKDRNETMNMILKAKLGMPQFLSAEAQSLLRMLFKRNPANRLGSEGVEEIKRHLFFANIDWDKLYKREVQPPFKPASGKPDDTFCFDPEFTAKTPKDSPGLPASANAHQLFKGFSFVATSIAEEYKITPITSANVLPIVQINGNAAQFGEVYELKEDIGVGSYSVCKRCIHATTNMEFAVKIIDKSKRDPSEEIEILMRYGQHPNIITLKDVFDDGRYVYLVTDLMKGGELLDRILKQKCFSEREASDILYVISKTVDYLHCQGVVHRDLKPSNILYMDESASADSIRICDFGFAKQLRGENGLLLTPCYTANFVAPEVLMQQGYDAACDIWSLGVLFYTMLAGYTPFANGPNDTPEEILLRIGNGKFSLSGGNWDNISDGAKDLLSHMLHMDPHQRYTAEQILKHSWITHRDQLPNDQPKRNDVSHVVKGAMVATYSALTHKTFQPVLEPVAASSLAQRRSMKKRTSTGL

DAPK2 (human) = DAPK2 (human) (UniProt Q9UIK4); assay: KINOMEscan competition binding; conditions: compound 10.0 µM
DAPK2 (human), sequence (Q9UIK4 whole entry, looked up): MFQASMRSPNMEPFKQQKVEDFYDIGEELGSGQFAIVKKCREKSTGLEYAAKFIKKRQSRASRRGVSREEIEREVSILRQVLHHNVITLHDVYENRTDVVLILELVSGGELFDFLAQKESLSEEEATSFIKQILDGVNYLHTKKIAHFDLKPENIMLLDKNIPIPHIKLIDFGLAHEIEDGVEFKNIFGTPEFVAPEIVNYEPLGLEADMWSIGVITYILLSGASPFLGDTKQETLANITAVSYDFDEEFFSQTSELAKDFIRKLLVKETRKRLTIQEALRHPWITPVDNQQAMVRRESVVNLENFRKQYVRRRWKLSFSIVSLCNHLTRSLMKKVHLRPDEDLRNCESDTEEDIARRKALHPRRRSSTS

ROS1 (human) = ROS1 (human) (UniProt P08922); assay: KINOMEscan competition binding; conditions: compound 10.0 µM
DAPK3 (human) = DAPK3 (human) (UniProt O43293); assay: KINOMEscan competition binding; conditions: compound 10.0 µM
DAPK3 (human), sequence (O43293 whole entry, looked up): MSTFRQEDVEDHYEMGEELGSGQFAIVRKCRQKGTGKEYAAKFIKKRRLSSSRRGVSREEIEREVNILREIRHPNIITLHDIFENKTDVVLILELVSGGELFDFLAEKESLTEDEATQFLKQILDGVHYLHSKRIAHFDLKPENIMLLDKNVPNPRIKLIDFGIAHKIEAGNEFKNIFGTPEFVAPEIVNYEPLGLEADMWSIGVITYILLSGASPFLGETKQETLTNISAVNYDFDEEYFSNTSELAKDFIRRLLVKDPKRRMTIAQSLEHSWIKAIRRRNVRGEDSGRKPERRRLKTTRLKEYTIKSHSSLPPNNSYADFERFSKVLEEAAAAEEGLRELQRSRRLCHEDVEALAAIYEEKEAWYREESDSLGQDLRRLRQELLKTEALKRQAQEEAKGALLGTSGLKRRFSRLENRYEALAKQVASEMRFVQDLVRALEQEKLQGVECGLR

EGFR (human) = EGFR (human) (UniProt P00533); assay: KINOMEscan competition binding; conditions: compound 10.0 µM
ALK (human) = ALK (human) (UniProt Q9UM73); assay: KINOMEscan competition binding; conditions: compound 10.0 µM
DCLK2 (human) = DCLK2 (human) (UniProt Q8N568); assay: KINOMEscan competition binding; conditions: compound 10.0 µM
PRKD1 (human) = PRKD1 (human) (UniProt Q15139); assay: KINOMEscan competition binding; conditions: compound 10.0 µM
[4] = system: EGFR (human), P00533 [P753S; 747-752 del]; assay: KINOMEscan competition binding; conditions: compound 10.0 µM
DCLK1 (human) = DCLK1 (human) (UniProt O15075); assay: KINOMEscan competition binding; conditions: compound 10.0 µM
STK4 (human) = STK4 (human) (UniProt Q13043); assay: KINOMEscan competition binding; conditions: compound 10.0 µM
[5] = system: EGFR (human), P00533 [G719S]; assay: KINOMEscan competition binding; conditions: compound 10.0 µM
RPS6KA2 KD2 (human) = RPS6KA2 KD2 (human) (UniProt Q15349); assay: KINOMEscan competition binding; conditions: compound 10.0 µM
GAK (human) = GAK (human) (UniProt O14976); assay: KINOMEscan competition binding; conditions: compound 10.0 µM
GAK (human), sequence (O14976 whole entry, looked up): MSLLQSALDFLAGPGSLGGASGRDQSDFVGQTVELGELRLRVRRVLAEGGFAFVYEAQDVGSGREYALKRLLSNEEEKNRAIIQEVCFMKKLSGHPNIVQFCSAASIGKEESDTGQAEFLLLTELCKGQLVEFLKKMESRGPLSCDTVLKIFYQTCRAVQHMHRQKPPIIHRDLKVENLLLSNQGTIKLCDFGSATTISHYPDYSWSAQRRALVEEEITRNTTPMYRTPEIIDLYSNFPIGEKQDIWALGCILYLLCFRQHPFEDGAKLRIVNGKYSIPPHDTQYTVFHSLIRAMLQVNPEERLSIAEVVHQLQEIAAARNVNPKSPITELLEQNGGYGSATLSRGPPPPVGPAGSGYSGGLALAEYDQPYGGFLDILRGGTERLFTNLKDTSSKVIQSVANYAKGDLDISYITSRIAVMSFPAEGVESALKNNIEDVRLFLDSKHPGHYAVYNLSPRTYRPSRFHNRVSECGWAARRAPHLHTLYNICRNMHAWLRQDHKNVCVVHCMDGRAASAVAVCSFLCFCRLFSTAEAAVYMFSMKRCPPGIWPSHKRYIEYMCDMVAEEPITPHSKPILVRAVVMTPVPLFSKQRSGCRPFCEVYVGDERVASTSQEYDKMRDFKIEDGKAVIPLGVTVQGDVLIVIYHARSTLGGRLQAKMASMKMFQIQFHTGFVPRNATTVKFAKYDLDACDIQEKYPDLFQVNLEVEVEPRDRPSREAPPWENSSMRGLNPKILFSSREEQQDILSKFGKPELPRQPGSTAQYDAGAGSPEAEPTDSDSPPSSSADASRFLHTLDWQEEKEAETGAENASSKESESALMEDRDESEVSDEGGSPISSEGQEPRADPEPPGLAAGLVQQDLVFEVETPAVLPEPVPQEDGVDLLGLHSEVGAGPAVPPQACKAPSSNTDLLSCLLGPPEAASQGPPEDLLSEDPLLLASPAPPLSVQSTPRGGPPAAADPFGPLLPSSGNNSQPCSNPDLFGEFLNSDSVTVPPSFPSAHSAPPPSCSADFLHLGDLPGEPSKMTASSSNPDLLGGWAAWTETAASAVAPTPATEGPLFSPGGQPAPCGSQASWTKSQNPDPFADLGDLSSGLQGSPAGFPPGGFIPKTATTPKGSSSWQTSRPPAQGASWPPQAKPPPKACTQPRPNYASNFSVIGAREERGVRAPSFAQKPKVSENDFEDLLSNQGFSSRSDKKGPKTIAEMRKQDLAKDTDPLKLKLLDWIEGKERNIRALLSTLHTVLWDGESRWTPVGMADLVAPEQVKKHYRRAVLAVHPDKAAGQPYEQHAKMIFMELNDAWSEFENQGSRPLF

TTK (human) = TTK (human) (UniProt P33981); assay: KINOMEscan competition binding; conditions: compound 10.0 µM
MYLK (human) = MYLK (human) (UniProt Q15746); assay: KINOMEscan competition binding; conditions: compound 10.0 µM
RPS6KA1 KD2 (human) = RPS6KA1 KD2 (human) (UniProt Q15418); assay: KINOMEscan competition binding; conditions: compound 10.0 µM
FER (human) = FER (human) (UniProt P16591); assay: KINOMEscan competition binding; conditions: compound 10.0 µM
[6] = system: EGFR (human), P00533 [A750P; 747-749 del]; assay: KINOMEscan competition binding; conditions: compound 10.0 µM
PLK1 (human) = PLK1 (human) (UniProt P53350); assay: KINOMEscan competition binding; conditions: compound 10.0 µM
[7] = system: EGFR (human), P00533 [L858R]; assay: KINOMEscan competition binding; conditions: compound 10.0 µM
TNK1 (human) = TNK1 (human) (UniProt Q13470); assay: KINOMEscan competition binding; conditions: compound 10.0 µM
PIM1 (human) [8] = molecular target: PIM1 (human) (UniProt P11309); assay: SelectScreen, TR FRET
PIM1 (human), sequence (P11309 whole entry, looked up): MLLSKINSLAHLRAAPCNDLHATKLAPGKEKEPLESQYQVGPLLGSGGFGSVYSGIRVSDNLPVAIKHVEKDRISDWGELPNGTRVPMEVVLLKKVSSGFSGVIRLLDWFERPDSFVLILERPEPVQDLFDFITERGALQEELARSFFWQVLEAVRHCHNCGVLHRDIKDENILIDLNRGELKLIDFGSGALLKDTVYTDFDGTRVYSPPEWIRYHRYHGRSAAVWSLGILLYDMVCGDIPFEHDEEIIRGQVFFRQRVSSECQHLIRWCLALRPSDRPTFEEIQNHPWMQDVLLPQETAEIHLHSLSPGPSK

PIM2 (human) [9] = molecular target: PIM2 (human) (UniProt Q9P1W9); assay: SelectScreen, TR FRET
PIM2 (human), sequence (Q9P1W9 whole entry, looked up): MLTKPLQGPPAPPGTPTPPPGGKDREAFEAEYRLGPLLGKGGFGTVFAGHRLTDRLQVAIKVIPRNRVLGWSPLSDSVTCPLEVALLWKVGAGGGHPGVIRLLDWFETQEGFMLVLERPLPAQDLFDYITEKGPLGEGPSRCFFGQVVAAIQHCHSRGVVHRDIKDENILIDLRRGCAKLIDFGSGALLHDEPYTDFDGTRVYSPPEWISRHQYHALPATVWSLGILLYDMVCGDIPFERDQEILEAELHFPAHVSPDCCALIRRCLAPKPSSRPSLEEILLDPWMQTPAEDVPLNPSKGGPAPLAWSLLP

PIM3 (human) = PIM3 (human) (UniProt Q86V86); assay: KINOMEscan competition binding; conditions: compound 10.0 µM
PIM1 (human) [10] = molecular target: PIM1 (human) (UniProt P11309); assay: KINOMEscan competition binding; conditions: compound 10.0 µM
MYLK3 (human) = MYLK3 (human) (UniProt Q32MK0); assay: KINOMEscan competition binding; conditions: compound 10.0 µM
RPS6KA4 KD2 (human) = RPS6KA4 KD2 (human) (UniProt O75676); assay: KINOMEscan competition binding; conditions: compound 10.0 µM
CLK2 (human) = CLK2 (human) (UniProt P49760); assay: KINOMEscan competition binding; conditions: compound 10.0 µM
[11] = system: EGFR (human), P00533 [L861Q]; assay: KINOMEscan competition binding; conditions: compound 10.0 µM
AAK1 (human) = AAK1 (human) (UniProt Q2M2I8); assay: KINOMEscan competition binding; conditions: compound 10.0 µM
PIM2 (human) [12] = molecular target: PIM2 (human) (UniProt Q9P1W9); assay: KINOMEscan competition binding; conditions: compound 10.0 µM
HIPK1 (human) = HIPK1 (human) (UniProt Q86Z02); assay: KINOMEscan competition binding; conditions: compound 10.0 µM
TIE1 (human) = TIE1 (human) (UniProt P35590); assay: KINOMEscan competition binding; conditions: compound 10.0 µM
TAOK1 (human) = TAOK1 (human) (UniProt Q7L7X3); assay: KINOMEscan competition binding; conditions: compound 10.0 µM
BMPR2 (human) = BMPR2 (human) (UniProt Q13873); assay: KINOMEscan competition binding; conditions: compound 10.0 µM
CIT (human) = CIT (human) (UniProt O14578); assay: KINOMEscan competition binding; conditions: compound 10.0 µM
STK17B (human) = STK17B (human) (UniProt O94768); assay: KINOMEscan competition binding; conditions: compound 10.0 µM
MYLK4 (human) = MYLK4 (human) (UniProt Q86YV6); assay: KINOMEscan competition binding; conditions: compound 10.0 µM
RIPK2 (human) = RIPK2 (human) (UniProt O43353); assay: KINOMEscan competition binding; conditions: compound 10.0 µM
RIPK2 (human), sequence (O43353 whole entry, looked up): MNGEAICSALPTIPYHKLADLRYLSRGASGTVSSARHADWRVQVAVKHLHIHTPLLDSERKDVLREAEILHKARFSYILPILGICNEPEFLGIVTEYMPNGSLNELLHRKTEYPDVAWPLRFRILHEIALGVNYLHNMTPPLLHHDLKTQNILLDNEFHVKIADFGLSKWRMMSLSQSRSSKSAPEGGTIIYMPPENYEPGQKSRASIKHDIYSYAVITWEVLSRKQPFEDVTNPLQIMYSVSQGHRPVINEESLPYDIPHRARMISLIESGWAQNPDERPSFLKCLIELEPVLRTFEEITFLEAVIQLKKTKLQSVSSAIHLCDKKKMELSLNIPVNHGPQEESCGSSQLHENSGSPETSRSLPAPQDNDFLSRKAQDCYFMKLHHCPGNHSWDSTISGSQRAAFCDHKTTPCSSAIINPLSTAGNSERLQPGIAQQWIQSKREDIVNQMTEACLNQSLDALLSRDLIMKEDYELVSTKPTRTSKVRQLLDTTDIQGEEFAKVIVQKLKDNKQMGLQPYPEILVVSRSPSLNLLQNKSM

ACVR2B (human) = ACVR2B (human) (UniProt Q13705); assay: KINOMEscan competition binding; conditions: compound 10.0 µM
MAPK15 (human) = MAPK15 (human) (UniProt Q8TD08); assay: KINOMEscan competition binding; conditions: compound 10.0 µM
PIK3CG (human) = PIK3CG (human) (UniProt P48736); assay: KINOMEscan competition binding; conditions: compound 10.0 µM
STK17A (human) = STK17A (human) (UniProt Q9UEE5); assay: KINOMEscan competition binding; conditions: compound 10.0 µM
[13] = molecular target: TYK2 JH2 pseudokinase (human) (UniProt P29597); assay: KINOMEscan competition binding; conditions: compound 10.0 µM
DAPK1 (human) = DAPK1 (human) (UniProt P53355); assay: KINOMEscan competition binding; conditions: compound 10.0 µM
CSNK2A2 (human) = CSNK2A2 (human) (UniProt P19784); assay: KINOMEscan competition binding; conditions: compound 10.0 µM
CSNK2A2 (human), sequence (P19784 whole entry, looked up): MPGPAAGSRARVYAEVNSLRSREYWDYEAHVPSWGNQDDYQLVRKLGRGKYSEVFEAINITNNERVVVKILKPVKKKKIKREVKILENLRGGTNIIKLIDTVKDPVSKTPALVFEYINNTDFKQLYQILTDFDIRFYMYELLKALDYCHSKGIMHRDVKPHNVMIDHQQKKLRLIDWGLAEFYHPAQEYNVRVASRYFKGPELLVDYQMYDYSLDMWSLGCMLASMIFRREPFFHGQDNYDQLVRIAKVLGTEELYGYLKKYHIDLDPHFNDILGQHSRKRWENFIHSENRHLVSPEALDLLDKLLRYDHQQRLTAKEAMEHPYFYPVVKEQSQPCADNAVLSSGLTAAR

CSNK2A1 (human) = CSNK2A1 (human) (UniProt P68400); assay: KINOMEscan competition binding; conditions: compound 10.0 µM
PIK3CD (human) = PIK3CD (human) (UniProt O00329); assay: KINOMEscan competition binding; conditions: compound 10.0 µM
PIK3C2B (human) = PIK3C2B (human) (UniProt O00750); assay: KINOMEscan competition binding; conditions: compound 10.0 µM
TEK (human) = TEK (human) (UniProt Q02763); assay: KINOMEscan competition binding; conditions: compound 10.0 µM

kinase still bound, per cent of control (ULK2 (human)): 2% | kinase still bound, per cent of control (PTK2B (human)): 13% | kinase still bound, per cent of control (INSR (human)): 30% | kinase still bound, per cent of control [1]: 23% | kinase still bound, per cent of control (INSRR (human)): 32% | kinase still bound, per cent of control (AKT3 (human)): 0% | kinase still bound, per cent of control (PLK3 (human)): 12% | kinase still bound, per cent of control [2]: 28% | kinase still bound, per cent of control (CSNK1E (human)): 0% | kinase still bound, per cent of control (PTK2 (human)): 3.4% | kinase still bound, per cent of control (PLK4 (human)): 9.4% | kinase still bound, per cent of control (STK33 (human)): 7.2% | kinase still bound, per cent of control (DMPK (human)): 0% | kinase still bound, per cent of control [3]: 20% | kinase still bound, per cent of control (RPS6KA6 KD2 (human)): 20% | kinase still bound, per cent of control (DAPK2 (human)): 32% | kinase still bound, per cent of control (ROS1 (human)): 0% | kinase still bound, per cent of control (DAPK3 (human)): 28% | kinase still bound, per cent of control (EGFR (human)): 29% | kinase still bound, per cent of control (ALK (human)): 11% | kinase still bound, per cent of control (DCLK2 (human)): 14% | kinase still bound, per cent of control (PRKD1 (human)): 29% | kinase still bound, per cent of control [4]: 24% | kinase still bound, per cent of control (DCLK1 (human)): 4.2% | kinase still bound, per cent of control (STK4 (human)): 0% | kinase still bound, per cent of control [5]: 31% | kinase still bound, per cent of control (RPS6KA2 KD2 (human)): 16% | kinase still bound, per cent of control (GAK (human)): 1.4% | kinase still bound, per cent of control (TTK (human)): 1.8% | kinase still bound, per cent of control (MYLK (human)): 14% | kinase still bound, per cent of control (RPS6KA1 KD2 (human)): 32% | kinase still bound, per cent of control (FER (human)): 24% | kinase still bound, per cent of control [6]: 18% | kinase still bound, per cent of control (PLK1 (human)): 0% | kinase still bound, per cent of control [7]: 31% | kinase still bound, per cent of control (TNK1 (human)): 20%
SMILES: COc1cc(N2CCN(CCO)CC2)ccc1Nc1ncc2c(n1)N(C1CCCC1)CCC(=O)N2C

IC50 (PIM1 (human) [8]): 94 nM | IC50 (PIM2 (human) [9]): 158 nM | kinase still bound, per cent of control (PIM3 (human)): 4.8% | kinase still bound, per cent of control (PIM1 (human) [10]): 2.7% | kinase still bound, per cent of control (MYLK3 (human)): 29% | kinase still bound, per cent of control [1]: 9.8% | kinase still bound, per cent of control (RPS6KA4 KD2 (human)): 22% | kinase still bound, per cent of control (CLK2 (human)): 27% | kinase still bound, per cent of control [11]: 28% | kinase still bound, per cent of control [2]: 15% | kinase still bound, per cent of control (AAK1 (human)): 35% | kinase still bound, per cent of control [3]: 1.9% | kinase still bound, per cent of control (RPS6KA6 KD2 (human)): 18% | kinase still bound, per cent of control (PIM2 (human) [12]): 2% | kinase still bound, per cent of control (HIPK1 (human)): 5% | kinase still bound, per cent of control (DAPK2 (human)): 12% | kinase still bound, per cent of control (TIE1 (human)): 25% | kinase still bound, per cent of control (TAOK1 (human)): 8.4% | kinase still bound, per cent of control (DAPK3 (human)): 25% | kinase still bound, per cent of control (EGFR (human)): 29% | kinase still bound, per cent of control (BMPR2 (human)): 12% | kinase still bound, per cent of control [4]: 14% | kinase still bound, per cent of control (CIT (human)): 0.2% | kinase still bound, per cent of control (STK17B (human)): 3.3% | kinase still bound, per cent of control (MYLK4 (human)): 17% | kinase still bound, per cent of control [5]: 19% | kinase still bound, per cent of control (RIPK2 (human)): 32% | kinase still bound, per cent of control (GAK (human)): 9.3% | kinase still bound, per cent of control (ACVR2B (human)): 9.9% | kinase still bound, per cent of control [6]: 5.8% | kinase still bound, per cent of control (PIK3CG (human)): 4% | kinase still bound, per cent of control (STK17A (human)): 1.5% | kinase still bound, per cent of control [13]: 33% | kinase still bound, per cent of control (DAPK1 (human)): 10% | kinase still bound, per cent of control (CSNK2A2 (human)): 4.2% | kinase still bound, per cent of control [7]: 20% | kinase still bound, per cent of control (CSNK2A1 (human)): 4.4% | kinase still bound, per cent of control (PIK3CD (human)): 27% | kinase still bound, per cent of control (PIK3C2B (human)): 19% | kinase still bound, per cent of control (TEK (human)): 2.1%
SMILES: O=C1NC(=O)/C(=C/c2ccc(-c3ccc(F)cc3O)o2)S1
kinase still bound, per cent of control (MAPK15 (human)): 3.6%
